Measured values taken from patent publication US9302999B2, “Substituted triazoles as herbicides” (E. I. DU PONT DE NEMOURS AND COMPANY, priority 2012, dated 2016).

Tests used:
[1] = system: field bindweed (Convolvulus arvensis); assay: Test E pre-/postemergence: field bindweed; type: in vivo; conditions: scale 0 to 100
From the text: (§1) Seeds of plant species selected from corn (Zea mays), soybean (Glycine max), velvetleaf (Abutilon theophrasti), lambsquarters (Chenopodium album), poinsettia, wild (wild poinsettia, Euphorbia heterophylla), pigweed, palmer (palmer pigweed, Amaranthus palmeri), waterhemp (common waterhemp, Amaranthus rudis), smartweed (ladysthumb smartweed, Polygonum persicaria), surinam grass (Brachiaria decumbens), crabgrass, large (large crabgrass, Digitaria sanguinalis), crabgrass, Brazil (Brazilian crabgrass, Digitaria horizontalis), panicum, fall (fall panicum, Panicum dichotomiflorum), foxtail, giant (giant foxtail, Setaria faberii), foxtail, green (green foxtail, Setaria viridis), goosegrass (Eleusine indica), johnsongrass (Sorghum halepense), ragweed (common ragweed, Ambrosia elation), barnyardgrass (Echinochloa crus-galli), sandbur (southern sandbur, Cenchrus echinatus), arrowleaf sida (Sida rhombifolia), ryegrass, Italian (Italian ryegrass, Lolium multiflorum), dayflower, (VA) (Virginia dayflower, Commelina virginica), field bindweed (Convolvulus arvensis), cocklebur (common cocklebur, Xanthium strumarium), morningglory (Ipomoea coccinea), nightshade (eastern black nightshade, Solanum ptycanthum), kochia (Kochia scoparia), nutsedge, yellow (yellow nutsedge, Cyperus esculentus) and beggarticks (hairy beggarticks, Bidens pilosa) were planted into a silt loam soil and treated preemergence with test chemicals formulated in a non-phytotoxic solvent mixture which included a surfactant. At the same time, plants selected from these crop and weed species were planted in pots containing a growing medium comprising spaghnum peat moss, vermiculite, wetting agent and starter nutrients and treated with postemergence applications of some of the test chemicals formulated in the same manner. Plants ranged in height from 2 to 18 cm for postemergence treatments (1- to 4-leaf stage).
(§2) Treated plants and controls were maintained in a greenhouse for 14 to 21 days, after which time all species were compared to controls and visually evaluated. Plant response ratings, summarized in Table E, are based on a scale of 0 to 100 where 0 is no effect and 100 is complete control. A dash (-) response means no test result.

kochia (Kochia scoparia) = assay: Test E pre-/postemergence: kochia; type: in vivo; conditions: Preemergence, scale 0 to 100
From the text: as §1, §2

[2] = system: pigweed, palmer (palmer pigweed, Amaranthus palmeri); assay: Test F pre-/postemergence: pigweed, palmer; type: in vivo
From the text: (§3) Seeds of plant species selected from corn (Zea mays), soybean (Glycine max), velvetleaf (Abutilon theophrasti), lambsquarters (Chenopodium album), poinsettia, wild (wild poinsettia, Euphorbia heterophylla), pigweed, palmer (palmer pigweed, Amaranthus palmeri), waterhemp (common waterhemp, Amaranthus rudis), surinam grass (Brachiaria decumbens), crabgrass, Brazil (Brazilian crabgrass, Digitaria horizontalis), panicum, fall (fall panicum Panicum dichotomiflorum), crabgrass, large (large crabgrass, Digitaria sanguinalis), foxtail, giant (giant foxtail, Setaria faberii), foxtail, green (green foxtail Setaria viridis), goosegrass (Eleusine indica), ragweed (common ragweed, Ambrosia elatior), barnyardgrass (Echinochloa crus-galli), sandbur (southern sandbur, Cenchrus echinatus), arrowleaf sida (Sida rhombifolia), ryegrass, Italian (Italian ryegrass, Lolium multiflorum), dayflower, VA (Virginia (VA) dayflower, Commelina virginica), field bindweed (Convolvulus arvensis), cocklebur (common cocklebur, Xanthium strumarium), morningglory (Ipomoea coccinea), nightshade (eastern black nightshade, Solanum ptycanthum), kochia (Kochia scoparia), nutsedge, yellow (yellow nutsedge, Cyperus esculentus), johnsongrass (Sorghum halepense), smartweed (ladysthumb smartweed, Polygonum persicaria), and beggarticks (hairy beggarticks, Bidens pilosa), were planted into a silt loam soil and treated preemergence with test chemicals formulated in a non-phytotoxic solvent mixture which included a surfactant. At the same time, plants selected from these crop and weed species and also pigweed (Amaranthus retroflexus), waterhemp_RES1 (ALS/Triazine resistant common waterhemp, Amaranthus rudis) and waterhemp_RES2 (ALS/HPPD resistant common waterhemp, Amaranthus rudis) were planted in pots containing a planting medium comprising spaghnum peat moss, vermiculite, wetting agent and starter nutrients treated with postemergence applications of some of the test chemicals formulated in the same manner. Plants ranged in height from 2 to 18 cm for postemergence treatments (1- to 4-leaf stage).
as §2

[3] = system: foxtail, green (green foxtail Setaria viridis); assay: Test F pre-/postemergence: foxtail, green; type: in vivo; conditions: Preemergence
From the text: as §3, §2

[4] = system: ragweed (common ragweed, Ambrosia elatior); assay: Test F pre-/postemergence: ragweed; type: in vivo; conditions: Preemergence
From the text: as §3, §2

[5] = system: barnyardgrass (Echinochloa crus-galli); assay: Test F pre-/postemergence: barnyardgrass; type: in vivo
From the text: as §3, §2

Oilseed Rape = assay: Test C preemergence: oilseed rape; type: in vivo; conditions: scale of 0 to 100, 0 is no effect, 100 is complete control
From the text: Seeds of plant species selected from blackgrass (Alopecurus myosuroides), bromegrass, downy (downy bromegrass, Bromus tectorum), foxtail, green (green foxtail, Setaria viridis), ryegrass, Italian (Italian ryegrass, Lolium multiflorum), winter wheat (Triticum aestivum), wild oat (Avena fatua), galium (catchweed bedstraw, Galium aparine), bermudagrass (Cynodon dactylon), surinam grass (Brachiaria decumbens), cocklebur (common cocklebur, Xanthium strumarium), corn (Zea mays), large crabgrass (Digitaria sanguinalis), woolly cupgrass (Eriochloa villosa), foxtail, giant (giant foxtail, Setaria faberii), goosegrass (Eleusine indica), johnsongrass (Sorghum halepense), kochia (Kochia scoparia), lambsquarters (Chenopodium album), morningglory (Ipomoea coccinea), nightshade (eastern black nightshade, Solanum ptycanthum), nutsedge, yellow (yellow nutsedge, Cyperus esculentus), pigweed (Amaranthus retroflexus), ragweed (common ragweed, Ambrosia elation), soybean (Glycine max), common (oilseed) sunflower (Helianthus annuus), Russian thistle (Salsola kali) and velvetleaf (Abutilon theophrasti) were planted into a blend of loam soil and sand and treated preemergence with test chemicals formulated in a non-phytotoxic solvent mixture which included a surfactant.
as §2, with “13” for “14”, “15” for “21”, “C,” for “E,”

Waterhemp = assay: Test C preemergence: waterhemp; type: in vivo, Amaranthus rudis; conditions: scale 0 to 100, 0 no effect, 100 complete control
[6] = Preemergence, 16 g ai/ha, scale 0 to 100 (0 no effect, 100 complete control)
[7] = Preemergence, 31 g ai/ha, scale 0 to 100 (0 no effect, 100 complete control)
[8] = Preemergence, 125 g ai/ha, scale 0 to 100
[9] = Preemergence, 250 g ai/ha, scale 0 to 100
[10] = 16 g ai/ha, scale 0 to 100 (0 no effect, 100 complete control)
[11] = 31 g ai/ha, scale 0 to 100 (0 no effect, 100 complete control)
[12] = Preemergence, 62 g ai/ha, scale 0 to 100
[13] = Postemergence, 8 g ai/ha, scale 0 to 100
[14] = Postemergence, 16 g ai/ha, scale 0 to 100
[15] = Postemergence, 62 g ai/ha, scale 0 to 100
[16] = Postemergence, 125 g ai/ha, scale 0 to 100

Compound: Cc1nn(-c2ccc(F)cc2)nc1Oc1ccnc(C(F)(F)F)c1 [Compound 129, 4-[[2-(4-fluorophenyl)-5-methyl-2H-1,2,3-triazol-4-yl]oxy]-2-(trifluoromethyl)pyridine]
- Plant response rating: Field Bindweed ([1]; Preemergence, 8 g ai/ha): 0
- Plant response rating: Field Bindweed ([1]; Preemergence, 16 g ai/ha): 0
- Plant response rating: Field Bindweed ([1]; Preemergence, 31 g ai/ha): 0
- Plant response rating: Field Bindweed ([1]; Preemergence, 62 g ai/ha): 35
- Plant response rating: Field Bindweed ([1]; Preemergence, 125 g ai/ha): 35
- Plant response rating: Kochia (kochia (Kochia scoparia); 8 g ai/ha): 35
- Plant response rating: Kochia (kochia (Kochia scoparia); 16 g ai/ha): 35
- Plant response rating: Kochia (kochia (Kochia scoparia); 31 g ai/ha): 50
- Plant response rating: Kochia (kochia (Kochia scoparia); 62 g ai/ha): 95
- Plant response rating: Kochia (kochia (Kochia scoparia); 125 g ai/ha): 95

Compound: CCCc1nn(-c2ccc(F)cc2)nc1Cc1ccnc(C(F)(F)F)c1 [Compound 153]
- Plant response rating, Pigweed, Palmer [2, 6]: 98
- Plant response rating, Pigweed, Palmer [2, 7]: 100
- Plant response rating, Pigweed, Palmer [2, 8]: 100
- Plant response rating, Pigweed, Palmer [2, 9]: 100
- Plant response rating, Foxtail, Green [3, 10]: 50
- Plant response rating, Foxtail, Green [3, 11]: 75
- Plant response rating, Foxtail, Green ([3]; 62 g ai/ha, scale 0 to 100): 100
- Plant response rating, Foxtail, Green ([3]; 125 g ai/ha, scale 0 to 100): 100
- Plant response rating, Foxtail, Green ([3]; 250 g ai/ha, scale 0 to 100): 100
- Plant response rating, Ragweed [4, 10]: 5
- Plant response rating, Ragweed [4, 11]: 5
- Plant response rating, Ragweed ([4]; 125 g ai/ha, scale 0 to 100): 20
- Plant response rating, Ragweed ([4]; 250 g ai/ha, scale 0 to 100): 80
- Plant response rating, Barnyardgrass [5, 6]: 5
- Plant response rating, Barnyardgrass [5, 7]: 10
- Plant response rating, Barnyardgrass [5, 12]: 10
- Plant response rating, Barnyardgrass [5, 8]: 75
- Plant response rating, Barnyardgrass [5, 9]: 100
- Plant response rating, Oilseed Rape (Oilseed Rape; 31 g ai/ha): 90
- Plant response rating, Oilseed Rape (Oilseed Rape; 62 g ai/ha): 95
- Plant response rating, Waterhemp (Waterhemp; 125 g ai/ha): 100

Compound: Cc1nn(-c2ccc(F)cc2)nc1Cc1ccnc(C(F)(F)F)c1 [Compound 16, 4-[[2-(4-fluorophenyl)-5-methyl-2H-1,2,3-triazol-4-yl]methyl]-2-(trifluoromethyl)pyridine]
- Plant response rating: Field Bindweed ([1]; Preemergence, 8 g ai/ha): 0
- Plant response rating: Field Bindweed ([1]; Preemergence, 16 g ai/ha): 0
- Plant response rating: Field Bindweed ([1]; Preemergence, 31 g ai/ha): 0
- Plant response rating: Field Bindweed ([1]; Preemergence, 62 g ai/ha): 20
- Plant response rating: Field Bindweed ([1]; Preemergence, 125 g ai/ha): 50
- Plant response rating: Kochia (kochia (Kochia scoparia); 8 g ai/ha): 0
- Plant response rating: Kochia (kochia (Kochia scoparia); 16 g ai/ha): 20
- Plant response rating: Kochia (kochia (Kochia scoparia); 31 g ai/ha): 70
- Plant response rating: Kochia (kochia (Kochia scoparia); 62 g ai/ha): 100
- Plant response rating: Kochia (kochia (Kochia scoparia); 125 g ai/ha): 100

Compound: CCOc1nn(-c2ccc(Br)cc2)nc1Cc1ccnc(C(F)(F)F)c1 [Compound 189]
- Plant response rating, Oilseed Rape (Oilseed Rape; 62 g ai/ha): 70
- Plant response rating, Waterhemp (Waterhemp; 125 g ai/ha): 100

Compound: CCCc1nn(-c2ccc(C(F)(F)F)c(F)c2)nc1Oc1ccnc(C(F)(F)F)c1 [Compound 185]
- Plant response rating, Oilseed Rape (Oilseed Rape; 62 g ai/ha): 85

Compound: Cc1nn(-c2ccc(F)c(F)c2)nc1Oc1ccnc(C(F)(F)F)c1 [Compound 145]
- Plant response rating, Pigweed, Palmer [2, 13]: 40
- Plant response rating, Pigweed, Palmer [2, 14]: 70
- Plant response rating, Pigweed, Palmer [2, 15]: 85
- Plant response rating, Pigweed, Palmer [2, 16]: 90
- Plant response rating, Barnyardgrass [5, 13]: 20
- Plant response rating, Barnyardgrass [5, 14]: 20
- Plant response rating, Barnyardgrass ([5]; Postemergence, 31 g ai/ha, scale 0 to 100): 30
- Plant response rating, Barnyardgrass [5, 15]: 30
- Plant response rating, Barnyardgrass [5, 16]: 40

Compound: Cc1nn(-c2ccc(C(F)(F)F)cc2)nc1Cc1ccnc(C(F)(F)F)c1 [Compound 47, 4-[[5-methyl-2-[4-(trifluoromethyl)phenyl]-2H-1,2,3-triazol-4-yl]methyl]-2-(trifluoromethyl)pyridine]
- Plant response rating: Field Bindweed ([1]; Postemergence, 250 g ai/ha): 65
- Plant response rating: Field Bindweed ([1]; Postemergence, 31 g ai/ha): 40
- Plant response rating: Field Bindweed ([1]; Preemergence, 16 g ai/ha): 25
- Plant response rating: Field Bindweed ([1]; Preemergence, 31 g ai/ha): 25
- Plant response rating: Field Bindweed ([1]; Preemergence, 62 g ai/ha): 50
- Plant response rating: Field Bindweed ([1]; Preemergence, 125 g ai/ha): 85
- Plant response rating: Field Bindweed ([1]; Preemergence, 250 g ai/ha): 100
- Plant response rating: Kochia (kochia (Kochia scoparia); 16 g ai/ha): 25
- Plant response rating: Kochia (kochia (Kochia scoparia); 31 g ai/ha): 35
- Plant response rating: Kochia (kochia (Kochia scoparia); 62 g ai/ha): 100
- Plant response rating: Kochia (kochia (Kochia scoparia); 125 g ai/ha): 100
- Plant response rating: Kochia (kochia (Kochia scoparia); 250 g ai/ha): 100

Compound: CCc1nn(-c2ccc(F)cc2)nc1Oc1ccnc(C(F)(F)F)c1 [Compound 166]
- Plant response rating, Oilseed Rape (Oilseed Rape; 62 g ai/ha): 50
- Plant response rating, Waterhemp (Waterhemp; 125 g ai/ha): 100
- Plant response rating, Waterhemp (Waterhemp; 250 g ai/ha): 100

Compound: Fc1ccc(-n2nc(Cc3ccnc(C(F)(F)F)c3)c(OCC(F)(F)F)n2)cc1 [Compound 142]
- Plant response rating, Foxtail, Green [3, 10]: 20
- Plant response rating, Foxtail, Green [3, 11]: 75
- Plant response rating, Foxtail, Green ([3]; 62 g ai/ha, scale 0 to 100): 98
- Plant response rating, Foxtail, Green ([3]; 125 g ai/ha, scale 0 to 100): 100
- Plant response rating, Ragweed [4, 10]: 0
- Plant response rating, Ragweed [4, 11]: 0
- Plant response rating, Ragweed ([4]; 125 g ai/ha, scale 0 to 100): 40
- Plant response rating, Barnyardgrass [5, 6]: 0
- Plant response rating, Barnyardgrass [5, 7]: 5
- Plant response rating, Barnyardgrass [5, 12]: 30
- Plant response rating, Barnyardgrass [5, 8]: 80
